Source: patent US11161845B2, “Pyrrolopyridine-aniline compounds for treatment of dermal disorders” (Nflection Therapeutics, Inc., priority 2017, dated 2021)
Read-outs that look alike come from different tables or passages of the source.

What was measured:
[1] = S9 stability assay, human liver S9 fraction; assay type: in vitro ADME; details: for half-life at 1 μM / microsomal CLint at 1 μM: pH 7.4
Method: Compounds were assessed for metabolic stability in human skin by assessing their rate of disappearance from human S9 skin fraction. Similarly, compounds were assessed for metabolic stability in human liver by assessing their rate of disappearance from human S9 liver fraction. The protocol below can be used to assess the difference between skin and hepatic metabolism.
The assay was carried out in 96-well microtiter plates at 37° C. Reaction mixtures (25 μL) contained a final concentration of 1 μM test compound, 2 mg/mL liver or skin S9 protein, and 1 mM NADPH in buffer (100 mM potassium phosphate, pH 7.4 buffer with 1 mM EDTA, 3 mM MgCl2). At each of the time points (0, 15, 30, and 60 minutes), 150 μL of quench solution (100% acetonitrile with 0.1% formic acid) with internal standard was transferred to each well. Besides the zero minute controls, mixtures containing the same components except the NADPH were also prepared as the negative control. Verapamil or testosterone was included as a positive control to verify assay performance. Plates were sealed and centrifuged at 4° C. for 15 minutes at 4000 rpm. The supernatant was transferred to fresh plates for LC/MS/MS analysis.
All samples were analyzed on LC/MS/MS using an AB Sciex API 4000 instrument, coupled to a Shimadzu LC-20AD LC Pump system. Analytical samples were separated using a Waters Atlantis T3 dC18 reverse phase HPLC column (20 mm×2.1 mm) at a flow rate of 0.5 mL/min. The mobile phase consisted of 0.1% formic acid in water (solvent A) and 0.1% formic acid in 100% acetonitrile (solvent B).
The extent of metabolism was calculated as the disappearance of the test compound, compared to the 0-min control reaction incubations. Initial rates were calculated for the compound concentration and used to determine t1/2 values and subsequently, the intrinsic clearance, CLint=(0.693) (1/t1/2 (min)) (mL incubation/mg of S9 protein).

A375 cells = experiment: A375 (BRAF) GI50 cell-based assay (Cell Titer-Glo); details: Homo sapiens, A-375; 72 hours; read-out: Assay 2: A375 (BRAF) GI50
Method: (§1) Alternatively, the following procedure can be used to measure cell-based activity. Test compounds were dissolved in DMSO in 10 mM stock. Cell Titer-Glo® 2.0 Luminescent cell viability assay reagent was purchased from Promega (Madison, Wis.). A375 and HCT116 cell lines were purchased from American Type Culture Collection (Manassas, Va.). For A375 cells, cell culture media was DMEM+10% FBS. For HCT116 cells, cell culture media was McCoy's 5A+10% FBS. All media were supplemented with 100 μg/mL of penicillin, and 100 μg/mL of streptomycin. Cultures were maintained at 37° C. in a humidified atmosphere of 5% CO2 and 95% air.
(§2) Test compounds were diluted in DMSO solution with 10-dose and 3-fold dilutions in a source plate starting at 10 mM. 25 nL of each test compound was delivered from the source plate to each well of the 384-well cell culture plates (T=Final) by Echo 550. 25 μL of culture medium containing 2000 of A375 or HCT116 cells was added to each of the wells in duplicates of the cell culture plates (T=0 and T=Final). 25 μL of Cell Titer Glo 2.0 reagent was added to each well of cell culture plate (T=0). The contents were mixed on an orbital shaker for 2 min and incubated at room temperature for 15 min to stabilize luminescent signal. Luminescence was recorded by Envision 2104 Multilabel Reader (PerkinElmer, Santa Clara, Calif.). The number of viable cells in culture was determined based on quantitation of the ATP present in each culture well. The cells in cell culture plate (T=Final) were incubated with the compounds at 37° C., 5% CO2 for 72 hours. 25 μL of Cell Titer Glo 2.0 reagent was added to each well. The contents were mixed on an orbital shaker for 2 min and incubated at room temperature for 15 min to stabilize luminescent signal. Luminescence was recorded by Envision 2104 Multilabel Reader (PerkinElmer, Santa Clara, Calif.). The number of viable cells in culture was determined based on quantitation of the ATP present in each culture well. The G150 curves were plotted using the GraphPad Prism 4 program based on a sigmoidal dose-response equation Y=Bottom+(Top−Bottom)/(1+10^((Log EC50−X)*HillSlope)). All parameters in the equation were calculated by GraphPad Prism 4 program. […] Accordingly, GI50 is the value of 10^X, where X was calculated by the Curve Fitting Equation when Y=50 using Excel.

HCT116 cells = experiment: HCT116 (Kras) GI50 cell-based assay (Cell Titer-Glo); details: Homo sapiens, HCT-116; 72 hours; read-out: Assay 3: HCT116 (Kras) GI50
Method: as §1, §2

MEK1 = target: T1, MEK1 (Homo sapiens, UniProt Q02750); experiment: MEK inhibition assay, Biological Example 1a (33P-ATP, P81 filter-binding); details: read-out: Assay 1: biochemical MEK IC50
T1 construct: N-terminal His-tagged recombinant human full length protein; His (N); purchased Invitrogen PV3303; host or cells: insect cells
Method: MEK1 inhibitory activity of compounds were tested using the following procedure. […] Activated in vitro by RAF1. MW=49.2 kDa, GenBank Accession No. NP_002746. • Substrate: 5 μM ERK2 (K52R), • Kinase-dead mutant, (GenBank Accession No. NM_0011949), aa2-358 with N-terminal His6 tag, MW=43.63 kDa, expressed in E. coli.
The substrate was prepared in freshly prepared Reaction Buffer. The kinase was delivered into the substrate solution and gently mixed. Test compounds were delivered in 100% DMSO into the kinase reaction mixture by Acoustic technology (Echo550; nanoliter range), and incubated for 20 min at room temperature. ^33P-ATP was delivered into the reaction mixture to initiate the reaction. The reaction mixture was incubated for 2 hours at room temperature. Kinase activity was detected by P81 filter-binding method.

MAP2K1 (MEK1) = target: T2, MAP2K1 (MEK1) (Homo sapiens, UniProt Q02750); experiment: MEK inhibition assay, Biological Example 1b (Z'-LYTE); details: Biological Example 1b (compounds 8, 10, 12 and 13); read-out: Assay 1: biochemical MEK IC50
T2 construct: purchased ThermoFisher
Method: MEK1 inhibitory activity of compounds were tested using the following procedure (protocol available at thermofisher.com/content/dam/LifeTech/migration/files/drug-discovery/pdfs.par.60256.file.dat/20130430%20ssbk%20customer %20protocol%20and %20assay%20conditions.pdf). The Z′-LYTE biochemical assay (ThermoFisher) employs a fluorescence-based, coupled-enzyme format and is based on the differential sensitivity of phosphorylated and non-phosphorylated peptides to proteolytic cleavage.
Test compounds in 100% DMSO were screened in 1% DMSO (final) in the well. For 10 point titrations, 3-fold serial dilutions are conducted from the starting concentration of 30 μM.
After the 1 hour incubation, 5 μL of a 1:1024 dilution of Development Reagent A (available from Invitrogen, catalog no. PV3295) was added.
ATP solutions were diluted to a 4× working concentration in Kinase Buffer (50 mM HEPES pH 7.5, 0.01% BRIJ-35, 10 mM MgCl2, 1 mM EGTA). ATP Km apparent was previously determined using a Z′-LYTE assay. The Development Reagent was diluted in Development Buffer (available from Invitrogen, catalog no. P3127).
Assay Protocol: 2.5 μL of 4× test compound or 100 nL of 100× Test Compound plus 2.4 μL Kinase Buffer, 5 μL of the 2× Peptide/Kinase Mixture, 2.5 μL of 4×ATP Solution were added to the plates and placed on a shake plate for 30-seconds. The kinase reaction was allowed to proceed for 60-minute at room temperature, before 5 μL of Development Reagent Solution was added, and the mixture agitated for 30-seconds on a shake plate. The mixture was incubated for 60-minute at room temperature. Fluorescence was measured using a plate reader and the data were analyzed.
This control yielded 100% cleaved peptide in the Development Reaction. The 100% Phosphorylation Control, which consisted of a synthetically phosphorylated peptide of the same sequence as the peptide substrate, was designed to allow for the calculation of percent phosphorylation. This control yielded a very low percentage of cleaved peptide in the Development Reaction. The 0% Phosphorylation and 100% Phosphorylation Controls allow for the calculation of the percent phosphorylation achieved in a specific reaction well.
The minimum emission ratio in a screen was established by the 0% Inhibition Control, which contained active kinase. This control was designed to produce a 10-50% phosphorylated peptide in the Kinase Reaction. […]
A known inhibitor control standard curve, 10 point titration, was run for each individual kinase on the same plate as the kinase to ensure the kinase was inhibited within an expected IC50 range previously determined.
The following controls are prepared for each concentration of Test Compound assayed. […] The expected value for a non-fluorescence compound should be 0%. […]
The data in Table A was calculated. […]

[2] = human, liver S9 fraction, Table 2, 1 μM, 2 mg/mL S9 protein, NADPH, read-out: Assay 4: human liver S9 half-life
[3] = human, liver S9 fraction, Table 2, 1 μM, 2 mg/mL S9 protein, NADPH, read-out: Assay 5: human liver S9 instrinsic clearance value

T2 sequence (Q02750 whole entry): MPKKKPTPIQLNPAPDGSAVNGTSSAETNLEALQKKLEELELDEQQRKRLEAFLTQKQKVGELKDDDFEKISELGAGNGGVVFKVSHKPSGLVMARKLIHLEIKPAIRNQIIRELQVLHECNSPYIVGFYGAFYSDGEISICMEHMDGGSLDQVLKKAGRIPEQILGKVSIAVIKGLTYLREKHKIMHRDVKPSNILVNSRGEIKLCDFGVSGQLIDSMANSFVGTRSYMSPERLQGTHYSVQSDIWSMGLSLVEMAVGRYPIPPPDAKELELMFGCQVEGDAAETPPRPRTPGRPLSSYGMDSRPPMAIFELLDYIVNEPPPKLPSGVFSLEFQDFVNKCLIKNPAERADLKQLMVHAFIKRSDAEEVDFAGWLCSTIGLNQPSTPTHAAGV
T1 sequence (Q02750 whole entry): as above

half-life at 1 μM [1, 2] [min] | microsomal CLint at 1 μM [1, 3] [µL/min/mg] | GI50 (A375 cells) [nM] | GI50 (HCT116 cells) [nM] | IC50 (MEK1) [nM] | Assay 5: human liver S9 instrinsic clearance value ([1]; Table 2, 1 μM, 2 mg/mL S9 protein, NADPH) [μL/min/mg protein] | microsomal CLint at 1 μM ([1]; Table 1, human liver S9 fraction, read-out: CLint) [µL/min/mg] | half-life at 1 μM ([1]; Table 1, human liver S9 fraction, read-out: Liver S9 t1/2) [min] | IC50 (MAP2K1 (MEK1)) [nM] | SMILES
21 | 16.5 | 809 | 5010 | 671 | – | – | – | – | Cn1c(Nc2ccc(I)cc2F)c(C(=O)NO)c2cccnc21 [Example 4, 2-((2-Fluoro-4-iodophenyl)amino)—N-hydroxy-1-methyl-1H-pyrrolo[2,3-b]pyridine-3-carboxamide]
90 | 3.85 | 81 | 448 | 371 | – | – | – | – | Cn1c(Nc2ccc(I)cc2F)c(C(=O)NOC[C@H](O)CO)c2cccnc21 [Example 6, (R)—N-(2,3-Dihydroxypropoxy)-2-((2-fluoro-4-iodophenyl)amino)-1-methyl-1H-pyrrolo[2,3-b]pyridine-3-carboxamide]
– | – | 346 | 346 | 260 | 44.80 | 44.8 | 8 | – | Cn1c(Nc2ccc(I)cc2F)c(C(=O)NOCC2CC2)c2cccnc21 [Example 7, N-(Cyclopropylmethoxy)-2-((2-fluoro-4-iodophenyl)amino)-1-methyl-1H-pyrrolo[2,3-b]pyridine-3-carboxamide]
34 | 10.3 | – | – | – | – | – | – | 243 | COc1cnc2c(c1)c(C(=O)NOCCO)c(Nc1ccc(I)cc1F)n2C [Example 8, 2-((2-Fluoro-4-iodophenyl)amino)—N-(2-hydroxyethoxy)-5-methoxy-1-methyl-1H-pyrrolo[2,3-b]pyridine-3-carboxamide]
96 | 3.59 | – | – | – | – | – | – | 1770 | Cn1c(Nc2ccc(I)cc2F)c(C(=O)NC[C@H](O)CO)c2cccnc21 [Example 10, (S)—N-(2,3-dihydroxypropyl)-2-((2-fluoro-4-iodophenyl)amino)-1-methyl-1H-pyrrolo[2,3-b]pyridine-3-carboxamide]
105 | 3.29 | – | – | – | – | – | – | 1780 | Cn1c(Nc2ccc(I)cc2F)c(C(=O)NC[C@@H](O)CO)c2cccnc21 [Example 12, (R)—N-(2,3-dihydroxypropyl)-2-((2-fluoro-4-iodophenyl)amino)-1-methyl-1H-pyrrolo[2,3-b]pyridine-3-carboxamide]
23 | 15.4 | – | – | – | – | – | – | 9610 | Cn1c(Nc2ccc(I)cc2F)c(C(N)=O)c2cccnc21 [Example 13, 2-(2-Fluoro-4-iodoanilino)-1-methyl-1H-pyrrolo[2,3-b]pyridine-3-carboxamide]
